Earlier results in patent US20160374912A1, “TOPICALLY APPLICABLE CHEMICAL PEEL COMPOSITION” (L'OREAL, priority 2015, published 2016).

Key:
[1] = not given; remark: listed apart in the source

Compound | pKA | Log P [1]
CC(c1ccccc1)c1ccc(O)cc1O (stereo not shown) [Phenylethyl Resorcinol] | 9.77-10.77 | 2.11
Oc1cccc(O)c1 [Resorcinol] | 9.32-9.81 | 2.47
